Laboratory results: ChEMBL document CHEMBL5136978, “Research progress in pharmacological activities and structure-activity relationships of tetralone scaffolds as pharmacophore and fluorescent skeleton” (Eur J Med Chem, 2022)
≈ marks a conversion by molar mass, not a printed value. Each block holds one molecule with its values, some of them ahead of it.

Key:
[1] = system: MCF7; assay: cells; format: functional, cell-based; conditions: Homo sapiens, MCF7, 72 h
Description: Cytotoxicity against human MCF7 cells assessed as cell growth inhibition incubated for 3 days by MTT assay

[2] = system: Nannizzia gypsea; assay: Antifungal activity against Microsporum gypseum C 115 2000 assessed as fungal growth inhibition by cup-plate method; format: functional
[3] = molecular target: T1, Amine oxidase [flavin-containing] A (Homo sapiens, UniProt P21397); assay: Inhibition of recombinant human MAO-A assessed as measuring amount of 4-hydroxyquinoline using kynuramine as substrate incubated for 20 mins by fluorescence spectrophotometry
T1 sequence (P21397 whole entry): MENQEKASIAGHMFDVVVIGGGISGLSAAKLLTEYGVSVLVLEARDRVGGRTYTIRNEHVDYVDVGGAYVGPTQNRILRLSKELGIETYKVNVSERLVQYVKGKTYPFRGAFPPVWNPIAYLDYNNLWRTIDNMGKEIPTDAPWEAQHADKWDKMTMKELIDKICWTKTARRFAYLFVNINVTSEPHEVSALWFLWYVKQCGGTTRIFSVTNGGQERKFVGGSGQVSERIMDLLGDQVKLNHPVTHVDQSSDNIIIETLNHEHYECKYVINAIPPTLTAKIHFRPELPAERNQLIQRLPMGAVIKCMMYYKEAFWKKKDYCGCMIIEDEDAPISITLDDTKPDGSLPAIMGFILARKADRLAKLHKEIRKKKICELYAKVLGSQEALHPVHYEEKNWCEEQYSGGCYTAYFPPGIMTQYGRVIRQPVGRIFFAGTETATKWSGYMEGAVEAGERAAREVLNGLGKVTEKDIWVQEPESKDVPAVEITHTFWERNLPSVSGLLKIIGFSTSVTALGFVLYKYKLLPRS

[4] = system: HepG2; assay: Antiproliferative activity against human HepG2 cells assessed as cell growth inhibition at 500 uM for 24 to 72 hrs by MTT assay relative to control; format: functional; design: scale not given: the % may be the effect or the level left; conditions: time 24-72 hrs
[5] = system: L02; assay: Antiproliferative activity against human L02 cells assessed as cell growth inhibition at 500 uM for 24 to 72 hrs by MTT assay relative to control; format: functional; design: scale not given: the % may be the effect or the level left; conditions: time 24-72 hrs
[6] = system: HepG2; assay: Downregulation of phosphorylated Akt in human HepG2 cells xenografted in BALB/c mouse at 160 mg/kg/day, ip for 19 days and measured after 24 hrs post last dose by immunohistochemical analysis relative to control; format: functional; conditions: time 20 day
[7] = system: HepG2; assay: Downregulation of NF-kappaB in human HepG2 cells xenografted in BALB/c mouse at 160 mg/kg/day, ip for 19 days and measured after 24 hrs post last dose by immunohistochemical analysis relative to control; format: functional; conditions: time 20 day
[8] = system: HepG2; assay: Downregulation of MMP9 in human HepG2 cells xenografted in BALB/c mouse at 160 mg/kg/day, ip for 19 days and measured after 24 hrs post last dose by immunohistochemical analysis relative to control; format: functional; conditions: time 20 day
[9] = system: HepG2; assay: Downregulation of MMP2 in human HepG2 cells xenografted in BALB/c mouse at 160 mg/kg/day, ip for 19 days and measured after 24 hrs post last dose by immunohistochemical analysis relative to control; format: functional; conditions: time 20 day
[10] = system: RAW264.7; assay: Inhibition of ROS production in LPS-stimulated mouse RAW264.7 cells preincubated for 1 hr followed by LPS stimulation measured after 24 hrs by fluorometry; format: functional, cell-based
[11] = system: MDA-MB-231; assay: Cytotoxicity against human MDA-MB-231 cells assessed as cell growth inhibition incubated for 72 hrs by alamar blue staining based assay; format: functional; conditions: MDA-MB-231, 72 h
[12] = molecular target: T2, 1,25-dihydroxyvitamin D(3) 24-hydroxylase, mitochondrial (Homo sapiens, UniProt Q07973); assay: Displacement of 25-hydroxy-[26,27-methyl-3H]-vitamin D3 from CYP24 in 1,25(OH)2D3-treated human DU-145 cells using 25-(OH)D3 as substrate pretreated with 1,25(OH)2D3 for 24 hrs followed by compound addition measured after 30 mins by HPLC analysis; format: cell-based
[13] = system: DU-145; assay: Cytotoxicity against 1,25-(OH)2D3-treated human DU-145 cells assessed as cell growth inhibition incubated for 96 hrs and re-dosed after 48 hrs […] by MTT assay relative to control; format: functional; design: scale not given: the % may be the effect or the level left; conditions: time 273 hrs
[14] = Antioxidant activity assessed as DPPH radical scavenging activity incubated for 30 mins under dark condition by absorbance based assay; format: functional
[15] = Antioxidant activity assessed as superoxide scavenging activity incubated for 20 mins by absorbance based assay; format: functional
[16] = Antioxidant activity assessed as hydroxyl radical scavenging activity incubated for 30 mins by absorbance based assay; format: functional
[17] = system: Trypanosoma brucei brucei; assay: Antitrypanosomal activity against Trypanosoma brucei brucei trypomastigotes assessed as parasite viability measured after 48 hrs by resazurin based fluorescence assay relative to control; format: functional
[18] = system: Trypanosoma brucei brucei; assay: Antitrypanosomal activity against Trypanosoma brucei brucei trypomastigotes assessed as parasite viability measured after 48 hrs by resazurin based fluorescence assay; format: functional, organism-based
[19] = molecular target: T2, 1,25-dihydroxyvitamin D(3) 24-hydroxylase, mitochondrial; assay: Inhibition of CYP24 (unknown origin); format: ADME
[20] = molecular target: T1, Amine oxidase [flavin-containing] A; assay: Inhibition of human MAO-A assessed as measuring amount of 4-hydroxyquinoline using kynuramine as substrate incubated for 20 mins by fluorescence spectrophotometry
[21] = molecular target: T3, Amine oxidase [flavin-containing] B (Homo sapiens, UniProt P27338); assay: Inhibition of human MAO-B assessed as measuring amount of 4-hydroxyquinoline using kynuramine as substrate incubated for 20 mins by fluorescence spectrophotometry
T3 sequence (P27338 whole entry): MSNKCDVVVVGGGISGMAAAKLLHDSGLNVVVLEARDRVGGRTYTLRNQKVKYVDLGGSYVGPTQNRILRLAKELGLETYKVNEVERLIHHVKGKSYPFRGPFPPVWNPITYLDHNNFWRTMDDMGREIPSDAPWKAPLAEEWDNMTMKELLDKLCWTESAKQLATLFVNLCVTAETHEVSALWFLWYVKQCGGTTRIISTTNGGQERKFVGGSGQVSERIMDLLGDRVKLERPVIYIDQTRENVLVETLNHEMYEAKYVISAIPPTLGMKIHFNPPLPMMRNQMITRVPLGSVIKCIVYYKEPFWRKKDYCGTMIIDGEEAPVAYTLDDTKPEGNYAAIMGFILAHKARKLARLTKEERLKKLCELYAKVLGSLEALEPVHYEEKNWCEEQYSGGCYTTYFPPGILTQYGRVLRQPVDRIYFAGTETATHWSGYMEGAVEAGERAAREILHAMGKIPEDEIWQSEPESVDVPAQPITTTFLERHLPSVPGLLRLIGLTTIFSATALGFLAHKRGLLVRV

[22] = organism: Homo sapiens; assay: Selectivity index, ratio of IC50 for human MAO-A to IC50 for human MAO-B
[23] = system: Candida albicans; assay: Antifungal activity against Candida albicans MTCC 227 assessed as fungal growth inhibition; format: functional
[24] = system: Aspergillus fumigatus; assay: Antifungal activity against Aspergillus fumigatus MTCC 343 assessed as fungal growth inhibition; format: functional
[25] = molecular target: T1, Amine oxidase [flavin-containing] A; assay: Inhibition of MAO-A (unknown origin)
[26] = molecular target: T3, Amine oxidase [flavin-containing] B; assay: Inhibition of MAO-B (unknown origin)
[27] = organism: Homo sapiens; assay: Selectivity index, ratio of IC50 for MAO-A (unknown origin) to IC50 for MAO-B (unknown origin)
[28] = system: A549; assay: Antiproliferative activity against human A549 cells assessed as cell growth inhibition by MTT assay; format: functional, cell-based
[29] = system: HT-29; assay: Antiproliferative activity against human HT-29 cells assessed as cell growth inhibition by MTT assay; format: functional, cell-based
[30] = system: T-24; assay: Antiproliferative activity against human T24 cells assessed as cell growth inhibition by MTT assay; format: functional, cell-based
[31] = system: MCF7; assay: Antiproliferative activity against human MCF7 cells assessed as cell growth inhibition by MTT assay; format: functional, cell-based
[32] = system: HepG2; assay: Antiproliferative activity against human HepG2 cells assessed as cell growth inhibition by MTT assay; format: functional, cell-based

T2 sequence (Q07973 whole entry): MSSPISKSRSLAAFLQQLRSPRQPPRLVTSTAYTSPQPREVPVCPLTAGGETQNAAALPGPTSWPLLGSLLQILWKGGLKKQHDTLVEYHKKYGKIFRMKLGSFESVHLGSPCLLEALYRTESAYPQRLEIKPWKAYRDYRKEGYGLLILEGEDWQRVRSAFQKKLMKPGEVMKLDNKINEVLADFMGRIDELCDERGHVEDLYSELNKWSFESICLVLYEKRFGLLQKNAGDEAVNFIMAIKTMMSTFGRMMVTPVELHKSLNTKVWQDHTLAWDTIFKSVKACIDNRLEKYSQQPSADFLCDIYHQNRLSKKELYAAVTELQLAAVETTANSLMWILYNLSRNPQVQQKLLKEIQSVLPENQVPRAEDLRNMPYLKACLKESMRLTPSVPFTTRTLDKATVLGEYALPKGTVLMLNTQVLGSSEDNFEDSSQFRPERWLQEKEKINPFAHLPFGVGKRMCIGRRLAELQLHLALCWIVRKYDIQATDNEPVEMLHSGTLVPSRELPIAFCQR

Compound: COc1ccc(C2C(C#N)=C(N)Oc3c2s/c(=N\c2ccc(Br)cc2)n3/N=C2\CCCc3cc(OC)ccc32)cc1 (configuration not stated)
- IC50 [1]: 930 nM

Compound: O=C1CCCc2ccc(OCc3ccc(Cl)cc3)cc21
- IC50 [3]: 36 nM

Compound: COc1ccc2c(c1)C(=O)CCC2
- Activity [4]: >50%
- Activity [5]: >50%
- Activity [6]: 2.91%
- Activity [7]: 35.47%
- Activity [8]: 7.64%
- Activity [9]: 9.69%

Compound: C[C@H]1CC(=O)c2c(O)cccc2[C@@H]1O
- IC50 [11]: > 520000 nM

Compound: O=C(/C=C/c1ccc(O)cc1)OC[C@H]1O[C@@H](Oc2ccc(O)c3c2C[C@H](O)CC3=O)C[C@@H](O)[C@@H]1O
- IC50 [14]: 57500 nM
- IC50 [15]: 61200 nM
- IC50 [16]: 2000 nM

Compound: CC(C)c1ccc2c(c1)C(C)(C)CC(Sc1nc(N)n(S(=O)(=O)c3ccc(Cl)c([N+](=O)[O-])c3)n1)C2=O (configuration not stated)
- IC50 [28]: 9890 nM
- IC50 [29]: 22200 nM
- IC50 [30]: 26900 nM
- IC50 [31]: 28900 nM
- IC50 [32]: 21400 nM

Continued, in another order:

- MIC [2]: 3 µg/mL (≈ 11.2 µM)
Compound: O=C1/C(=C/c2ccc(Cl)cc2)CCc2ccccc21

- IC50 [10]: 250 nM
Compound: Nc1ccc2c(c1)CC/C(=C\c1ccccc1F)C2=O

- IC50 [12]: 3500 nM
Compound: COc1ccc2c(c1)CCC(Cc1ccc(O)cc1)C2=O (configuration not stated)
- Activity [13]: 25%

- IC50 [18]: 400 nM
Compound: O=C1/C(=C/c2ccccc2-c2ccccc2)CCc2cc(O)ccc21
- Activity [17]: 0.7%

- IC50 [19]: 900 nM
Compound: COc1ccc2c(c1)CC/C(=C\c1cc(C(F)(F)F)ccc1C(F)(F)F)C2=O

- IC50 [20]: 1960 nM
- IC50 [21]: 707 nM
- Ratio IC50 [22]: 2.8
Compound: COc1ccc2c(c1)C(=O)/C(=C/c1ccc[nH]1)CC2

- MIC [23]: 12.5 µg/mL (≈ 33.1 µM)
- MIC [24]: 12.5 µg/mL (≈ 33.1 µM)
Compound: COc1ccc2c(c1)CC[C@@H]1C2=NN(C2=NC(=O)CS2)[C@@H]1c1ccccc1

- IC50 [25]: 754 nM
- IC50 [26]: 13 nM
- Ratio IC50 [27]: 58
Compound: O=C1/C(=C/c2cccc(Br)c2)CCc2ccc(O)cc21
